Test results taken from patent US20250057853A1 (priority 2023, published 2025).

Conditions: Cohort 5: 4.0 g/kg via 15-minutes IV infusion

For `Br.CN1[C@@H]2C[C@@H](OC(=O)[C@H](CO)c3ccccc3)C[C@H]1[C@@H]1O[C@@H]12.O.O.O` [scopolamine HBr, scopolamine hydrobromide trihydrate], the “Number of TEAEs” value was 25 AEs.
